# Test results: ChEMBL document CHEMBL4811258, “Potent Antimalarials with Development Potential Identified by Structure-Guided Computational Optimization of a Pyrrole-Based Dihydroorotate Dehydrogenase Inhibitor Series” (J Med Chem, 2021)
# Calls of active or inactive are those of the source. The calls are words filed in the database; no cut-off is given here.
# What was measured:
# [1] = AUC (0 to infinity) in Sprague-Dawley rat at 17 mg/kg, po measured up to 24 hrs; format: ADME, organism-based; parameters: route oral, dose 17 mg/kg, time <=24; conditions: in vivo
# [2] = Plasma clearance in Sprague-Dawley rat at […], iv measured up to 24 hrs; format: ADME, organism-based; conditions: dose 1.8 mg/kg
# Plasmodium falciparum [3] = assay: Antiplasmodial activity against asexual blood stage Plasmodium falciparum D10 expressing yeast DHODH infected in human erythrocytes assessed as parasite killing in presence of proguanil; format: functional, organism-based
# [4] = Mutagenicity in Salmonella typhimurium by Ames test; format: toxicity; conditions: salmonella enterica subsp. enterica serovar typhimurium
# [5] = target: Dihydroorotate dehydrogenase (quinone), mitochondrial (Mus musculus, UniProt O35435); assay: Inhibition of mouse DHODH up to 100 uM; conditions: up to 100 µM
# Cytochrome P450 2C8 = target: T1, Cytochrome P450 2C8 (Homo sapiens, UniProt P10632)
# T1 sequence (P10632 whole entry): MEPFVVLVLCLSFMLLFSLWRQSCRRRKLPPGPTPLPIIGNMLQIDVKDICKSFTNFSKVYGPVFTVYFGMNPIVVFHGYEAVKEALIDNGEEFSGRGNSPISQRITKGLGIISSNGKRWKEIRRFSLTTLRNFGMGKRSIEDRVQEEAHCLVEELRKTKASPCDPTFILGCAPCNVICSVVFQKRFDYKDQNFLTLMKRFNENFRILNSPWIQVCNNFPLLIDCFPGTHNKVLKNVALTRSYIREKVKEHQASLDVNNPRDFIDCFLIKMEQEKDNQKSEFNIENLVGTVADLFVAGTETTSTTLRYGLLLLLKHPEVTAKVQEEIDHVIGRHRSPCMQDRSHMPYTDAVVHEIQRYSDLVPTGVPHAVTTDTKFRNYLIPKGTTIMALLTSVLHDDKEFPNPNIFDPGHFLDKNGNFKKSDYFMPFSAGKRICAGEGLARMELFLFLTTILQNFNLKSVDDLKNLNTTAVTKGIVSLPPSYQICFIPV
# HepG2 = assay: Cytotoxicity against human HepG2 cells; format: cell-based
# [6] = mouse, plasma
# [7] = Plasma clearance in Swiss mouse at […], iv measured up to 24 hrs by LC-MS analysis; format: ADME, organism-based; conditions: dose 2.3 mg/kg
# [8] = Oral bioavailability in Sprague-Dawley rat at 17 mg/kg measured up to 24 hrs; format: ADME, organism-based; conditions: in vivo
# [9] = Unbound AUC in orally dosed NOD-SCID IL2Rgamma null mouse infected with Plasmodium falciparum 3D70087/N9 administered days after 3 post infection once daily for 4 days measured on day 7 by flow cytometry; format: ADME, organism-based; conditions: in vivo, po, 96 h, time 4 day
# [10] = Cmax in Sprague-Dawley rat at 17 mg/kg, po measured up to 24 hrs; format: ADME, organism-based; parameters: route oral, dose 17 mg/kg, time <=24; conditions: in vivo
# [11] = rat, in vivo, po, 10 mg/kg, 24 h
# Cytochrome P450 3A4 = Cytochrome P450 3A4 (Homo sapiens, UniProt P08684)
# Plasmodium falciparum [12] = assay: Antimalarial activity against Plasmodium falciparum 3D70087/N9 infected in orally dosed NOD-SCID IL2Rgamma null mouse assessed as parasitemia level in human red blood cells at 50 mg/kg, po administered days after 1 day post infection twice daily for 6 days measured on day 7 by flow cytometry; format: functional, organism-based; conditions: time 6.0 day
# Plasmodium falciparum [13] = assay: Antiplasmodial activity against Plasmodium falciparum Dd2 Uganda infected in human erythrocytes assessed as parasite killing using albumax media measured after 72 hrs by SYBR Green assay; format: functional, organism-based; conditions: Dd2, 72 h
# [14] = rat, in vivo, po, 10 mg/kg, 24 h; remark: listed apart in the source
# [15] = Half life in Swiss mouse at […], po measured up to 24 hrs by LC-MS analysis; format: ADME, organism-based; conditions: in vivo, dose 2.6 mg/kg
# [16] = AUC (0 to infinity) in Swiss mouse at […], po measured up to 24 hrs by LC-MS analysis; format: ADME, organism-based; parameters: route oral, dose 2.6 mg/kg, time <=24; conditions: in vivo
# [17] = Intrinsic clearance in mouse liver microsomes at 1 uM measured up to 4 hrs by LC-MS analysis; format: ADME, Microsome
# [18] = rat, in vivo, po, 10 mg/kg, 24 h; remark: listed apart in the source
# [19] = Volume of distribution at steady state in Swiss mouse at […], iv measured up to 24 hrs by LC-MS analysis; format: ADME, organism-based; conditions: in vivo, dose 2.3 mg/kg, read-out: Vdss
# Cytochrome P450 2B6 = target: T2, Cytochrome P450 2B6 (Homo sapiens, UniProt P20813)
# T2 sequence (P20813 whole entry): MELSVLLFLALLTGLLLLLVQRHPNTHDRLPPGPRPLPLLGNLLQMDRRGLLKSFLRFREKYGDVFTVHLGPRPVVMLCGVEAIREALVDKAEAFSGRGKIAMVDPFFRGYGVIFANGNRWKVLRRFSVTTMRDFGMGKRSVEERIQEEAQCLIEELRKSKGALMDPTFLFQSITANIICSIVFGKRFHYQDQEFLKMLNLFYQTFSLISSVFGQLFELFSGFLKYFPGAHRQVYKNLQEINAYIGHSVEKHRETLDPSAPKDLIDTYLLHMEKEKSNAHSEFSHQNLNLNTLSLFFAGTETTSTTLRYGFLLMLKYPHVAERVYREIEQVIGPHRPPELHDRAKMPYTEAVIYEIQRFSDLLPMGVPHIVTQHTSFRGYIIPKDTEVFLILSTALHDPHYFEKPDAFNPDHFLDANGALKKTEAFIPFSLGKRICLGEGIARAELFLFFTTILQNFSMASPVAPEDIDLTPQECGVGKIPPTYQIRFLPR
# Plasmodium falciparum [20] = assay: Antiplasmodial activity against asexual blood stage Plasmodium falciparum D10 expressing yeast DHODH infected in human erythrocytes assessed as parasite killing; format: functional, organism-based
# [21] = rat, in vivo, po, 10 mg/kg, 24 h; remark: listed apart in the source
# [22] = Cmax in Swiss mouse at […], po measured up to 24 hrs by LC-MS analysis; format: ADME, organism-based; parameters: route oral, dose 2.6 mg/kg, time <=24; conditions: in vivo
# [23] = Cmax in Swiss mouse at 24 mg/kg, po measured up to 24 hrs by LC-MS analysis; format: ADME, organism-based; parameters: route oral, dose 24 mg/kg, time <=24; conditions: in vivo
# in vivo = conditions: Sprague-Dawley, rat, po, 17 mg/kg
# [24] = Half life in Swiss mouse at 24 mg/kg, po measured up to 24 hrs by LC-MS analysis; format: ADME, organism-based; conditions: in vivo
# [25] = human, plasma
# [26] = Oral bioavailability in Swiss mouse at 24 mg/kg measured up to 24 hrs by LC-MS analysis; format: ADME, organism-based; conditions: in vivo
# Plasmodium falciparum [27] = assay: Antimalarial activity against Plasmodium falciparum 3D70087/N9 infected in NOD-SCID IL2Rgamma null mouse assessed as parasitemia level at 50 mg/kg, po administered days after 3 post infection once daily for 4 days measured on day 7 by flow cytometry; format: functional, organism-based; conditions: time 4.0 day
# [28] = Inhibition of dog DHODH up to 100 uM; parameters: species or system Canis lupus familiaris; conditions: up to 100 µM
# [29] = target: Dihydroorotate dehydrogenase (quinone), mitochondrial (Rattus norvegicus, UniProt Q63707); assay: Inhibition of rat DHODH up to 100 uM; conditions: up to 100 µM
# Chain of Dihydroorotate dehydrogenase (quinone), mitochondrial (Rattus norvegicus, UniProt Q63707) (Q63707 whole entry): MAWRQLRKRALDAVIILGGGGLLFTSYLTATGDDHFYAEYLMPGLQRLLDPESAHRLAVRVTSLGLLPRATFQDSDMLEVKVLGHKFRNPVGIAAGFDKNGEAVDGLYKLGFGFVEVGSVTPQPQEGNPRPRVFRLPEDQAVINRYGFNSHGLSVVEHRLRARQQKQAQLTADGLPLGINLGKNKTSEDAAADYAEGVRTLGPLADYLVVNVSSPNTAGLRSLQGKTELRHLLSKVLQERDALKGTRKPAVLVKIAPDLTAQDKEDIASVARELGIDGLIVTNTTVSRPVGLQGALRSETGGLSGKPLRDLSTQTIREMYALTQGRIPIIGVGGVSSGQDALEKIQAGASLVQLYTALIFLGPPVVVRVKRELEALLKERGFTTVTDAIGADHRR
# Chain of Cytochrome P450 3A4 (P08684 whole entry): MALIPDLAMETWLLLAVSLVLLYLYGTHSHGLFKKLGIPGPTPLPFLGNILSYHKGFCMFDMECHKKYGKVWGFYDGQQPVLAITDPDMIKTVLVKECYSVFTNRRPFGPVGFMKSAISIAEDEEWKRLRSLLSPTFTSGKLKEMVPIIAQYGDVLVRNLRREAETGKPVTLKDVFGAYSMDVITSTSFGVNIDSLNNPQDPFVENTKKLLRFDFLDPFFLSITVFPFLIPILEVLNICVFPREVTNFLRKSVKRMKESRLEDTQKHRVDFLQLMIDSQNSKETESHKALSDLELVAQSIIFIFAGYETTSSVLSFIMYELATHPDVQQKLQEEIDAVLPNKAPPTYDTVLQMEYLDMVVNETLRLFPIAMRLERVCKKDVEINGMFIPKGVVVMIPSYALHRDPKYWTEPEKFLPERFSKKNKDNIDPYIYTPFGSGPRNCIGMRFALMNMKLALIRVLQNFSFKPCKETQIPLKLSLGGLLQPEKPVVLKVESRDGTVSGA
# Chain of Dihydroorotate dehydrogenase (quinone), mitochondrial (Mus musculus, UniProt O35435) (O35435 whole entry): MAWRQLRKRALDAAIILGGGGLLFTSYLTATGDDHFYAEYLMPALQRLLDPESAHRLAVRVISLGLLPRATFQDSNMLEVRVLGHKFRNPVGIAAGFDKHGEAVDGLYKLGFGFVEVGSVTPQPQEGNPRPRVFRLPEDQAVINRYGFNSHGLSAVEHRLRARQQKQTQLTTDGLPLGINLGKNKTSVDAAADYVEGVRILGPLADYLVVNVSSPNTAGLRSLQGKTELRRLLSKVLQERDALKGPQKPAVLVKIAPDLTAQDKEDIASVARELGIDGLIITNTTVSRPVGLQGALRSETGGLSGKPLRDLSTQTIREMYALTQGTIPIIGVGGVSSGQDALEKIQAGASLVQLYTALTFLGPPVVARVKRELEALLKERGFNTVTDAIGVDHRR
compound,measurement,setting,value
Cc1c(C2(c3ccc(C(F)(F)F)nc3)CC2)c[nH]c1C(=O)NC(C)c1nc[nH]n1 (stereo in doubt; form 1),AUC(0-inf),[1],120 µM·h
same,clearance at 24 h,[2],6.8 mL/min/kg
same,EC50,Plasmodium falciparum [3],> 10 µM
same,Activity,[4],Non-Toxic
same,inhibition (INH),[5],Not Active
same,IC50,Cytochrome P450 2C8,> 20 µM
same,Activity,HepG2,Non-Toxic
same,PPB,[6],92.1%
same,clearance at 24 h,[7],2.8 mL/min/kg
same,bioavailability,[8],110%
same,fAUC,[9],4.1 µM·h
same,Cmax,[10],14 µM
same,AUC,[11],47 µM·h
same,TDI,Cytochrome P450 3A4,Not Active
same,Activity,Plasmodium falciparum [12],Active
same,EC50,Plasmodium falciparum [13],0.0069 µM
same,F,[14],77%
same,half-life at 24 h,[15],3.4 h
same,AUC(0-inf) at 24 h,[16],29 µM·h
same,Intrinsic clearance,[17],11 µL/min/mg
same,Cmax,[18],6 µM
same,Vd at 24 h,[19],1.3 L/kg
same,IC50,Cytochrome P450 2B6,> 20 µM
same,EC50,Plasmodium falciparum [20],> 10 µM
same,t1/2(app),[21],5.9 h
same,Cmax at 24 h,[22],2.6 µM
same,Cmax,[23],20 µM
same,Tmax at 24 h,in vivo,2.5 h
same,t1/2,[24],4.5 h
same,PPB,[25],92.8%
same,F,[26],70%
same,Activity,Plasmodium falciparum [27],Active
same,inhibition (INH),[28],Not Active
same,inhibition (INH),[29],Not Active
